Reference: patent US20250186433A1, “ACSS2 INHIBITORS AND METHODS OF USE THEREOF” (EpiVario, Inc., priority 2017, published 2025)

Molecular target: ACSS2 (Homo sapiens, UniProt Q9NR19)
Assay: biochemical
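Further: Pyrophosphatase-coupled ACSS2 enzyme assay, 10 nM protein incubated 90 min at 37 °C with ATP, CoA and acetate, released phosphate read by Biomol Green absorbance at 620 nm.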

Chain of ACSS2 (Q9NR19 whole entry): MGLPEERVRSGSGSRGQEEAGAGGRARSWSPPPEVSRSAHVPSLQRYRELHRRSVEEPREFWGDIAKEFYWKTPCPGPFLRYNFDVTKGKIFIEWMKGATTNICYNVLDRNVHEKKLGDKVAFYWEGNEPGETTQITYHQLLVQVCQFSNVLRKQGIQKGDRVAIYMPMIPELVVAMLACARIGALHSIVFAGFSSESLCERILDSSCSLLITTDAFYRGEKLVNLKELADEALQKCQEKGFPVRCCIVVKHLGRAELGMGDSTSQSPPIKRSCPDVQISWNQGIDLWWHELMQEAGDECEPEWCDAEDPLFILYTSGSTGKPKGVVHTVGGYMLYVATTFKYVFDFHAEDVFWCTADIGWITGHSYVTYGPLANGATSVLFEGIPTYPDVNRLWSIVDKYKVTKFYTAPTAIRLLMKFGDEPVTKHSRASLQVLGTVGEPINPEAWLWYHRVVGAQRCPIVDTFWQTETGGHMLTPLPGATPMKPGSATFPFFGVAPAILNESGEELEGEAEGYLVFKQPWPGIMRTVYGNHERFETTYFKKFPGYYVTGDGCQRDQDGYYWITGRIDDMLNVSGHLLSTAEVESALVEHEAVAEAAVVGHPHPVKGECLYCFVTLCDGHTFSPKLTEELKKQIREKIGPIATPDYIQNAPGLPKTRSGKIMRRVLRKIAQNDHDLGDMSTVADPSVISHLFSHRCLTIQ

**Q.** Which IC50 does the source give for CCc1cccc(NC(=O)C2C(=O)N(c3ccc([N+](=O)[O-])cc3)N=C2C)c1 (stereo not shown) [compound 157] here?
**A.** Its IC50 is 1000 to 100000 nM.

**Q.** CC(F)(F)c1cccc(NC(=O)C2C(=O)N(c3ccc(OC(F)F)cc3)N=C2CS)c1 (stereo not shown) [compound 339] was tested. Which IC50 did it give?
**A.** Its IC50 is 100 to 1000 nM.

**Q.** For COc1cccc(Cc2cc(-c3cccnc3)cc(N3N=C(C)C(C(=O)Nc4cccc(C(C)(F)F)c4)C3=O)c2)c1 (stereo not shown) [compound 461], which IC50 is on record?
**A.** The IC50 was 6 to 100 nM.

**Q.** For CCC(F)(F)c1cccc(NC(=O)C2C(=O)N(c3ccc4ccn(C)c4c3)N=C2C)c1 (stereo not shown) [compound 462, N-[3-(1,1-difluoropropyl)phenyl]-3-methyl-1-(1-methylindol-6-yl)-5-oxo-4H-pyrazole-4-carboxamide], which IC50 is on record?
**A.** The IC50 was 0.01 to 6 nM.

**Q.** With CCC(F)(F)c1cccc(NC(=O)C2C(=O)N(c3ccc4ccn(Cc5ccccc5)c4c3)N=C2C)c1 (stereo not shown) [compound 463, 1-(1-benzylindol-6-yl)-N-[3-(1,1-difluoropropyl)phenyl]-3-methyl-5-oxo-4H-pyrazole-4-carboxamide] as the compound, how does the IC50 read?
**A.** Its IC50 is 0.01 to 6 nM.

**Q.** Which IC50 does the source give for CC1=NN(c2ccc(OC(F)F)cn2)C(=O)C1C(=O)Nc1cccc(C(F)(F)C2CC2)c1 (stereo not shown) [compound 464, N-(3-(cyclopropyldifluoromethyl)phenyl)-1-(5-(difluoromethoxy)pyridin-2-yl)-3-methyl-5-oxo-4,5-dihydro-1H-pyrazole-4-carboxamide] here?
**A.** The IC50 was 0.01 to 6 nM.

**Q.** With CC1=NN(c2cc(-c3cccnc3)cc(-c3cccc4[nH]ccc34)c2)C(=O)C1C(=O)Nc1cccc(C(C)(F)F)c1 (stereo not shown) [compound 465] as the compound, how does the IC50 read?
**A.** The IC50 was 6 to 100 nM.

**Q.** COc1ccccc1Cc1cc(-c2cccnc2)cc(N2N=C(C)C(C(=O)Nc3cccc(C(C)(F)F)c3)C2=O)c1 (stereo not shown) [compound 466] was tested. Which IC50 did it give?
**A.** The IC50 was 6 to 100 nM.

**Q.** COc1ccccc1Cc1cc(-c2ccccc2)cc(N2N=C(C)C(C(=O)Nc3cccc(C(C)(F)F)c3)C2=O)c1 (stereo not shown) [compound 467] was tested. Which IC50 did it give?
**A.** Its IC50 is 6 to 100 nM.

**Q.** Which IC50 does the source give for CC1=NN(c2cc(Br)cc(I)c2)C(=O)C1C(=O)Nc1cccc(C(C)(F)F)c1 (stereo not shown) [compound 468] here?
**A.** The IC50 was 0.01 to 6 nM.

**Q.** Which IC50 does the source give for CC1=NN(c2ccc(OC(F)F)cc2)C(=O)C1C(=O)Nc1cccc(C(F)(F)C2CCCC2)c1 (stereo not shown) [compound 470, N-(3-(cyclopentyldifluoromethyl)phenyl)-1-(4-(difluoromethoxy)phenyl)-3-methyl-5-oxo-4,5-dihydro-1H-pyrazole-4-carboxamide] here?
**A.** Its IC50 is 100 to 1000 nM.

**Q.** How did the IC50 turn out when CON(C)C(=O)C(F)(F)c1cccc(NC(=O)C2C(=O)N(c3ccc(OC(F)F)c(-c4ccccn4)c3)N=C2C)c1 (stereo not shown) [compound 471, N-(3-(1,1-difluoro-2-(methoxy(methyl)amino)-2-oxoethyl)phenyl)-1-(4-(difluoromethoxy)-3-(pyridin-2-yl)phenyl)-3-methyl-5-oxo-4,5-dihydro-1H-pyrazole-4-carboxamide] was run?
**A.** Its IC50 is 100 to 1000 nM.

**Q.** Which IC50 does the source give for CCC(F)(F)c1cccc(NC(=O)C2C(=O)N(c3ccc4ccn(-c5ccccc5)c4c3)N=C2C)c1 (stereo not shown) [compound 472, N-[3-(1,1-difluoropropyl)phenyl]-3-methyl-5-oxo-1-(1-phenylindol-6-yl)-4H-pyrazole-4-carboxamide] here?
**A.** Its IC50 is 0.01 to 6 nM.

**Q.** How did the IC50 turn out when CC1=NN(c2cc(-c3cccnc3)cc(-c3ccc4cc[nH]c4c3)c2)C(=O)C1C(=O)Nc1cccc(C(C)(F)F)c1 (stereo not shown) [compound 473] was run?
**A.** Its IC50 is 6 to 100 nM.

**Q.** Which IC50 does the source give for CCC(F)(F)c1cccc(NC(=O)C2C(=O)N(c3ccc4cccnc4c3)N=C2C)c1 (stereo not shown) [compound 474, N-(3-(1,1-difluoropropyl)phenyl)-3-methyl-5-oxo-1-(quinolin-7-yl)-4,5-dihydro-1H-pyrazole-4-carboxamide] here?
**A.** The IC50 was 0.01 to 6 nM.

**Q.** How did the IC50 turn out when CCC(F)(F)c1cccc(NC(=O)C2C(=O)N(c3ccc4ccn(C(=O)c5ccccc5)c4c3)N=C2C)c1 (stereo not shown) [compound 475, 1-(1-benzoylindol-6-yl)-N-[3-(1,1-difluoropropyl)phenyl]-3-methyl-5-oxo-4H-pyrazole-4-carboxamide] was run?
**A.** The IC50 was 0.01 to 6 nM.

**Q.** For CCC(F)(F)c1cccc(NC(=O)C2C(=O)N(c3ccc4ccn(S(=O)(=O)c5ccccc5)c4c3)N=C2C)c1 (stereo not shown) [compound 476, N-(3-(1,1-difluoropropyl)phenyl)-3-methyl-5-oxo-1-(1-(phenylsulfonyl)-1H-indol-6-yl)-4,5-dihydro-1H-pyrazole-4-carboxamide], which IC50 is on record?
**A.** Its IC50 is 0.01 to 6 nM.

**Q.** Which IC50 does the source give for CCC(F)(F)c1cccc(NC(=O)C2C(=O)N(c3ccc4ccn(CCc5ccccc5)c4c3)N=C2C)c1 (stereo not shown) [compound 477, N-[3-(1,1-difluoropropyl)phenyl]-3-methyl-5-oxo-1-[1-(2-phenylethyl)indol-6-yl]-4H-pyrazole-4-carboxamide] here?
**A.** The IC50 was 6 to 100 nM.

**Q.** Which IC50 does the source give for CCCC(=O)n1ccc2ccc(N3N=C(C)C(C(=O)Nc4cccc(C(F)(F)CC)c4)C3=O)cc21 (stereo not shown) [compound 478, 1-(1-butanoylindol-6-yl)-N-[3-(1,1-difluoropropyl)phenyl]-3-methyl-5-oxo-4H-pyrazole-4-carboxamide] here?
**A.** The IC50 was 0.01 to 6 nM.

**Q.** CCC(F)(F)c1cccc(NC(=O)C2C(=O)N(c3ccc4ccn(C(=O)c5ccccc5C)c4c3)N=C2C)c1 (stereo not shown) [compound 479] was tested. Which IC50 did it give?
**A.** The IC50 was 0.01 to 6 nM.

**Q.** CCC(F)(F)c1cccc(NC(=O)C2C(=O)N(c3ccc4ccn(C(=O)c5ccc(C)cc5)c4c3)N=C2C)c1 (stereo not shown) [compound 480, N-[3-(1,1-difluoropropyl)phenyl]-3-methyl-1-[1-(4-methylbenzoyl)indol-6-yl]-5-oxo-4H-pyrazole-4-carboxamide] was tested. Which IC50 did it give?
**A.** The IC50 was 6 to 100 nM.

**Q.** How did the IC50 turn out when CC1=NN(c2ccc(OC(F)F)cc2)C(=O)C1C(=O)Nc1cccc(C(F)(F)C2CC2)c1 (stereo not shown) [compound 481, N-(3-(cyclopropyldifluoromethyl)phenyl)-1-(4-(difluoromethoxy)phenyl)-3-methyl-5-oxo-4,5-dihydro-1H-pyrazole-4-carboxamide] was run?
**A.** Its IC50 is 0.01 to 6 nM.

**Q.** With CCC(F)(F)c1cccc(NC(=O)C2C(=O)N(c3ccc4ccn(C(=O)c5ccc(O)cc5)c4c3)N=C2C)c1 (stereo not shown) [compound 482, N-(3-(1,1-difluoropropyl)phenyl)-1-(1-(4-hydroxybenzoyl)-1H-indol-6-yl)-3-methyl-5-oxo-4,5-dihydro-1H-pyrazole-4-carboxamide] as the compound, how does the IC50 read?
**A.** The IC50 was 0.01 to 6 nM.

**Q.** With CCC(F)(F)c1cccc(NC(=O)C2C(=O)N(c3ccc4ccn(C(=O)c5cccc(C)c5)c4c3)N=C2C)c1 (stereo not shown) [compound 483, N-[3-(1,1-difluoropropyl)phenyl]-3-methyl-1-[1-(3-methylbenzoyl)indol-6-yl]-5-oxo-4H-pyrazole-4-carboxamide] as the compound, how does the IC50 read?
**A.** The IC50 was 6 to 100 nM.

**Q.** With CCC(F)(F)c1ccnc(NC(=O)C2C(=O)N(c3ccc(OC(F)F)cc3)N=C2C)c1 (stereo not shown) [compound 484, 1-(4-(difluoromethoxy)phenyl)-N-(4-(1,1-difluoropropyl)pyridin-2-yl)-3-methyl-5-oxo-4,5-dihydro-1H-pyrazole-4-carboxamide] as the compound, how does the IC50 read?
**A.** The IC50 was 6 to 100 nM.

**Q.** Which IC50 does the source give for CCC(F)(F)c1cccc(NC(=O)C2C(=O)N(c3ccc4ccsc4c3)N=C2C)c1 (stereo not shown) [compound 485, 1-(benzo[b]thiophen-6-yl)-N-(3-(1,1-difluoropropyl)phenyl)-3-methyl-5-oxo-4,5-dihydro-1H-pyrazole-4-carboxamide] here?
**A.** Its IC50 is 0.01 to 6 nM.

**Q.** For CCC(F)(F)c1cccc(NC(=O)C2C(=O)N(c3ccc(OC(F)F)cc3)N=C2C)n1 (stereo not shown) [compound 486, 1-(4-(difluoromethoxy)phenyl)-N-(6-(1,1-difluoropropyl)pyridin-2-yl)-3-methyl-5-oxo-4,5-dihydro-1H-pyrazole-4-carboxamide], which IC50 is on record?
**A.** The IC50 was 0.01 to 6 nM.

**Q.** Which IC50 does the source give for CCC(F)(F)c1cccc(NC(=O)C2C(=O)N(c3ccc4cnn(S(=O)(=O)c5ccc(C)cc5)c4c3)N=C2C)c1 (stereo not shown) [compound 487, N-[3-(1,1-difluoropropyl)phenyl]-3-methyl-5-oxo-1-[1-(p-tolylsulfonyl)indazol-6-yl]-4H-pyrazole-4-carboxamide] here?
**A.** Its IC50 is 6 to 100 nM.
